Read-outs that look alike come from different tables or passages of the source. Marks after values point to notes of the source that are not given here.
Legend:
[1] = molecular target: T1, cytidine deaminase (CD) (Homo sapiens, UniProt P32320); test: Competition assay for substrates of cytidine deaminase, crude extracts of PC-3 cells; type: biochemical; settings: for substrate for cytidine deaminase (in words): competition studies, human tumor cell extracts; for % Inhibition (CD) / inhibition at 250 µM: competitor 250 μM; for % Inhibition (CD) / inhibition at 250 µM / inhibition: ratio 10, PC-3 extracts
T1 construct: Crude extracts of PC-3 cells in culture were prepared as described above; endogenous in cells; host or cells: PC-3 cells (crude extract supernatant)
T1 sequence (P32320 whole entry): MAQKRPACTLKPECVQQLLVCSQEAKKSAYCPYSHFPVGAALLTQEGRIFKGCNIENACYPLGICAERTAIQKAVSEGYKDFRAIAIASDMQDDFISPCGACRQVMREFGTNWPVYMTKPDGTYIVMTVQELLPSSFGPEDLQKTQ
Experimental: The crude enzyme extract (the supernatant of a 10 minute 14,000×g centrifugation) was then added. When cytidine was used as substrate, assays were conducted with benzacyclouridine to inhibit uridine phosphorylases. […] After 0, 15, and 30 minutes, the reaction was stopped and denatured protein removed as above for dC Kinase. […] Aliquots were then spotted on PE cellulose TLC sheets and the reactants separated with a solvent system composed of isopropanol:HCl:H2O (170:41:39). […] The nucleosides were visualized under U.V. light and the spots cut out and counted. […] Enzyme activity was expressed as nmole formed in 30 min/mg/protein.
Competition assays to determine Substrate Specificity: Crude extracts of PC-3 cells in culture were prepared as described above. Two concentrations of crude extract were utilized for the studies as determined from the analysis of protein.
The assays were run for 0, 15, and 30 minutes.

[2] = system: PC-3 cells; test: Radiosensitization of cells in culture (Cobalt 60, clonogenic survival); type: cell-based, human
Experimental: (§1) Toxicity and Radiation Studies: The methods using clonogenic assays described by Perez and Greer (Int. J. Rad. Oncology: Biology, Physics 12, 1523-1527, 1986—incorporated herein by reference in its entirety) were followed.
Irradiation of Cells in Culture: 2×10^5 cells were plated in 25 cm^2 flasks and grown for 18 hr at 37° C. in a humidified 5% CO2 atmosphere. The medium was then removed and replaced with medium containing the appropriate drug concentrations and incubated for 72 hrs then removed and the cell monolayers were rinsed twice with PBS. The flasks were then filled with 50 ml of radiation medium (3 parts RPMI 1640 and 7 parts PBS plus antibiotics and glutamine). The cells were then irradiated using a Cobalt 60 irradiator. The cell monolayers were placed 35 cm away from the source and irradiated for appropriate times according to the dose rate. The dose rate was calculated, at this distance, using ionization chambers. Attenuation factors due to the polystyrene flask (0.9923) and the medium (H2O=0.8715) were considered in calculating the exposure period.
After irradiation the cell monolayers were washed again, replenished with growth media, and incubated for 1½ hours. The cell monolayers were then trypsinized and the cells serially diluted, appropriate dilutions were then plated in 60 mm dishes and incubated for 7-9 days at 37° C. and CO2. At the end of this period the cells were stained with crystal violet and the colony forming ability determined by considering 25 or more normal cells as a viable colony. The viabilities were determined and the appropriate survival curves derived. All conditions were done in duplicate using two flasks treated under identical conditions.

[3] = system: PC-3 cells; test: Cytotoxicity (clonogenic) assay, 72 h drug exposure; type: cell-based, human
Experimental: as §1
Cytotoxicity Assays: 5×10^5 cells were plated in 60 mm tissue culture dishes in 5 mls of the optimal growth media for the particular cell line in an humidified 95% air-5% CO2 atmosphere. The plates were incubated for 18-20 hours to allow for attachment and log-phase growth to begin. At the end of this period the growth medium was aspirated and replaced with […]. Four times (4×) concentrated solutions were prepared and then 1 ml was added to the plates; and growth media were then added to a total volume of […]. The plates were then incubated for 72 hours and the cells harvested by trypsinization. The cells were then serially diluted in growth medium replated into 60 mm dishes and incubated for 6 to 9 days depending on the cell line. After this incubation period, the media was aspirated and the colonies were washed twice with a PBS solution. The colonies were then stained with a 0.2% crystal violet-20% ethanol solution for 5 min. the stain was removed, the colonies were washed and air dried. A viable colony was one consisting of 25 or more normal appearing cells and was considered to have arisen from a single cell. The colonies were counted under a dissecting microscope. Two to three dilutions for every condition were plated. Dishes containing 30-300 colonies were used in the calculation and all conditions were done in duplicate.

[4] = system: uridine/cytidine kinase; test: Competition assay for substrates of uridine/cytidine kinase, crude extracts of T24 cells; type: biochemical, human
Experimental: 2 mM dithiothreitol (DTT) and 0.5 mM phenylmethylsulfanyl fluoride were added just before extraction. The tissue sample was homogenized in a Dounce glass homogenizer and then sonicated for 3 five-second pulses in a Branson Sonifier with a micro-tip at 25 KHz to disrupt the cells. During homogenization and sonication the extract was kept cold throughout the procedures. The tissue extract was then centrifuged at 14,000×g at 4° C. for 15 min., and the supernatant (the crude enzyme extract) was removed. The supernatant was sheared 20 times on ice utilizing a 1 cc syringe with a 27 G½ needle to reduce viscosity. […] 2 mM DTT and 340 μM H4U were added just before the assay. Finally, to the reaction mixture, 5 μl 200 mM creatine phosphate and creatine phosphokinase (0.5 unit/μl) was added to 150 μl of the section mixture. […] H2O bath for 1 minute before 20 μl of the crude enzyme extract was added to initiate the reaction. […] At 0, 30 and 60 minutes the reaction mixture, divided in separate tubes, was heated in a boiling water bath for 2 minutes to terminate the reaction. Denatured protein was then removed by centrifugation of the sample for 2 minutes at 14,000×g. The amount of nucleotide formed was determined by spotting 20 μl aliquots of the reaction mixture onto DE-81 2.2 cm Whatman filter discs. After air drying, the unphosphorylated substrate nucleoside was removed by washing twice for 10 min. in 20 mM ammonium formate and twice for 5 min. in deionized H2O with gentle stirring. A control, lacking the crude enzyme extract was included with each determination. The washed papers were dried under a heat lamp and then placed into individual scintillation vials, eluted for 30 min. in 1 ml of 0.1M HCl-0.1M KCL and then vortexed in 5 ml of scintillation fluid and counted. Enzyme activity was expressed as pmoles/min/mg protein.
When uridine was utilized as substrate, benzacyclouridine was added to prevent the catabolism of the substrate by uridine phosphorylase and tetrahydrouridine was omitted.

[5] = molecular target: deoxycytidine kinase (dCK) (Homo sapiens, UniProt P27707); test: Competition assay for substrates of deoxycytidine kinase, crude extracts of PC-3 cells; settings: read-out: % Inhibition (dCK)
deoxycytidine kinase (dCK), sequence (P27707 whole entry): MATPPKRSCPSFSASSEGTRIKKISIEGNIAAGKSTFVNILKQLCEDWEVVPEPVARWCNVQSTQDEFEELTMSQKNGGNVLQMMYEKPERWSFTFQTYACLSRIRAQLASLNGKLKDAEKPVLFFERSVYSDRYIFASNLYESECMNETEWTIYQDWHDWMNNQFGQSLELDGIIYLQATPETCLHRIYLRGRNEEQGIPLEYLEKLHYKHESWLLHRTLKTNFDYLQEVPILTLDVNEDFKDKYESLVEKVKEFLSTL

[6] = substrate 3H-Deoxycytidine 25 μM
[7] = competitor 100 μM, substrate 3H-Cytidine 8.3 μM
[8] = competitor 100 μM, substrate 3H-Uridine 16.7 μM
[9] = competitor 250 μM, substrate 3H-Cytidine 8.3 μM
[10] = competitor 250 μM, substrate 3H-Uridine 16.7 μM
[11] = competitor 500 μM, substrate 3H-Cytidine 8.3 μM
[12] = competitor 500 μM, substrate 3H-Uridine 16.7 μM
[13] = competitor 750 μM, substrate 3H-Uridine 16.7 μM

CNc1nc(=O)n([C@H]2C[C@H](O)[C@@H](CO)O2)cc1Cl [4-N,methylamino CldC, 4-N, methylamino-5-Chloro-2′-deoxycytidine]
substrate for cytidine deaminase (in words) [1]: reasonably good substrate
% Inhibition (CD) ([1]; substrate 3H-Cytidine 25 μM): 13%
% Inhibition (CD) [1, 6]: 29%
radiosensitization of PC-3 cells (in words) [2]: potent radiosensitizing effect
effect of tetrahydrouridine (H4U) on radiosensitization (in words) ([2]; cells in culture): antagonism by tetrahydrouridine
effect of thymidine on radiosensitization (in words) ([2]; cells in culture): antagonized by thymidine

CNc1nc(=O)n([C@H]2C[C@H](O)[C@@H](CO)O2)cc1F [4-N,methylamino FdC, 4-N, methylamino-5-Fluoro-2′-deoxycytidine]
effect of thymidine on cytotoxicity (in words) ([3]; PC-3 cells): antagonized by thymidine
effect of tetrahydrouridine (H4U) on cytotoxicity / viability (in words) ([3]; PC-3 cells, listed as 4-N, methylamino FdC): antagonized by tetrahydrouridine
effect of tetrahydrouridine (H4U) on cytotoxicity / viability (in words) ([3]; PC-3 cells, listed as 4N, methylFdC): prevented by tetrahydrouridine
substrate for cytidine deaminase (in words) ([1]; listed as 4-N, methylamino FdC): poor substrate
substrate for cytidine deaminase (in words) ([1]; listed as 4-N, methylamino-5-Fluoro-2′-deoxycytidine): moderate to poor substrate
% Inhibition (CD) ([1]; substrate 3H-Cytidine 25 μM): 0%
% Inhibition (CD) [1, 6]: 4.0%

O=c1[nH]c(=O)n(COCCO)cc1Cc1ccccc1 [5-Benzacyclouridine]
% Inhibitation (U/C kinase) ([4]; competitor 1500 μM, substrate 3H-Cytidine 8.3 μM): 0%
% Inhibitation (U/C kinase) ([4]; competitor 1500 μM, substrate 3H-Uridine 16.7 μM): 7.0%

Nc1nc(=O)n([C@@H]2O[C@H](CO)[C@@H](O)[C@H]2O)cc1Cl [5-Chlorocytidine]
effect of tetrahydrouridine (H4U) on cytotoxicity / viability (in words) ([3]; human, 72 h): H4U decreases viability
radiosensitization of PC-3 cells (in words) [2]: radiosensitization
effect of tetrahydrouridine (H4U) on radiosensitization (in words) ([2]; cells in culture): decreases radiosensitization
substrate for U/C kinase of T24 cells (in words) [4]: moderate substrates
% Inhibitation (U/C kinase) [4, 7]: 10%
% Inhibitation (U/C kinase) [4, 8]: 2%
% Inhibitation (U/C kinase) [4, 9]: 24%
% Inhibitation (U/C kinase) [4, 10]: 23%

Nc1nc(=O)n([C@H]2C[C@H](O)[C@@H](CO)O2)cc1Cl [5-Chlorodeoxycytidine, 5-chloro-2′-deoxycytidine, reference compound]
inhibition at 250 µM [1, 6]: 42%
inhibition ([1]; substrate 3H-Cytidine 25 μM): 80%
% Inhibitation (U/C kinase) [4, 10]: 0%
% Inhibitation (U/C kinase) [4, 11]: 5.1%
inhibition at 250 µM [5]: 72%

O=c1[nH]c(=O)n([C@H]2C[C@H](O)[C@@H](CO)O2)cc1Cl [5-Chlorodeoxyuridine]
% Inhibitation (U/C kinase) ([4]; competitor 200 μM, substrate 3H-Cytidine 8.3 μM): 7.0%
% Inhibitation (U/C kinase) [4, 10]: 0%

Nc1nc(=O)n([C@@H]2O[C@H](CO)[C@@H](O)[C@H]2O)cc1F [5-Fluorocytidine]
% Inhibitation (U/C kinase) [4, 8]: 34%
% Inhibitation (U/C kinase) [4, 9]: 51%
% Inhibitation (U/C kinase) [4, 10]: 58%
% Inhibitation (U/C kinase) [4, 11]: 66%

Nc1nc(=O)n([C@H]2C[C@H](O)[C@@H](CO)O2)cc1F [5-Fluorodeoxycytidine, reference compound]
inhibition at 250 µM [1, 6]: 50%
inhibition ([1]; substrate 3H-Cytidine 25 μM): 83%
% Inhibitation (U/C kinase) [4, 11]: 4.8%
inhibition at 250 µM [5]: 90%

O=c1[nH]c(=O)n([C@@H]2O[C@H](CO)[C@@H](O)[C@H]2O)cc1F [5-Fluorouridine]
% Inhibitation (U/C kinase) [4, 8]: 56%
% Inhibitation (U/C kinase) [4, 10]: 80%

Cc1cn([C@H]2C[C@H](O)[C@@H](CO)O2)c(=O)nc1N [5-methyldC, reference compound]
% Inhibition (CD) ([1]; substrate 3H-Cytidine 25 μM): 30%

Nc1ccn([C@@H]2O[C@H](CO)[C@@H](O)[C@H]2O)c(=O)n1 [Cytidine]
% Inhibitation (U/C kinase) [4, 7]: 66%
% Inhibitation (U/C kinase) [4, 8]: 57%
% Inhibitation (U/C kinase) [4, 9]: 85%
% Inhibitation (U/C kinase) [4, 10]: 89%
% Inhibitation (U/C kinase) [4, 11]: 88%
% Inhibitation (U/C kinase) [4, 12]: 90%
% Inhibitation (U/C kinase) [4, 13]: 96%

Nc1ccn([C@H]2C[C@H](O)[C@@H](CO)O2)c(=O)n1 [Deoxycytidine]
inhibition at 250 µM [1, 6]: 66%
% Inhibitation (U/C kinase) [4, 9]: 10%
% Inhibitation (U/C kinase) [4, 10]: 0%
% Inhibitation (U/C kinase) [4, 11]: 20%

O=c1ccn([C@H]2C[C@H](O)[C@@H](CO)O2)c(=O)[nH]1 [Deoxyuridine]
% Inhibitation (U/C kinase) [4, 10]: 0** %

O=c1[nH]c(=O)n([C@H]2C[C@H](O)[C@@H](CO)O2)cc1I [IdU, 5-Iododeoxyuridine, reference compound]
effect of tetrahydrouridine (H4U) on cytotoxicity / viability (in words) [3]: relative lack of the effect of tetrahydrouridine
effect of tetrahydrouridine (H4U) on radiosensitization (in words) ([2]; cells in culture): relative lack of the effect of tetrahydrouridine

O=c1ccn([C@@H]2O[C@H](CO)[C@@H](O)[C@H]2O)c(=O)[nH]1 [Uridine]
inhibition at 250 µM [1, 6]: 2%
% Inhibitation (U/C kinase) [4, 7]: 59%
% Inhibitation (U/C kinase) [4, 8]: 62%
% Inhibitation (U/C kinase) [4, 9]: 75%
% Inhibitation (U/C kinase) [4, 10]: 80%
% Inhibitation (U/C kinase) [4, 11]: 80%
% Inhibitation (U/C kinase) [4, 12]: 87%
% Inhibitation (U/C kinase) ([4]; competitor 750 μM, substrate 3H-Cytidine 8.3 μM): 86%
% Inhibitation (U/C kinase) [4, 13]: 90%
inhibition at 250 µM [5]: 0%

Source: patent US8252768B2, “Designer therapy of pancreatic tumors” (University of Miami, priority 2006, dated 2012)
